In one data set the target is AURKA (Aurora A) (Homo sapiens, UniProt O14965). Kind of data set: SelectScreen kinase profiling: AURKA. Type of data set: biochemical. To be noted: 1 µM compound; [ATP] 10 µM. How it is done:
(§1) Effect of the indicated compounds on the activity of various kinases was assessed by SelectScreen Kinase Profiling Service (Invitrogen-Life Technologies, Paisley, UK). Assays were performed using 1 μM of the tested compounds and ATP concentration as indicated in the corresponding tables. In the case of […] a screen using 10 μM of the compound was also carried out, as indicated in the corresponding table.

The next data set has as its target CAMK2A (CaMKII alpha) (Homo sapiens, UniProt Q9UQM7). Kind of data set: SelectScreen kinase profiling: CAMK2A. The class given is biochemical. The settings on record: [ATP] 10 µM. How it is done: as §1
The target of another data set is CHEK2 (CHK2) (Homo sapiens, UniProt O96017). The experiment in a line: SelectScreen kinase profiling: CHEK2. Type of data set: biochemical. The settings on record: [ATP] 75 µM. How it is done:
as §1

Another data set addresses FRAP1 (mTOR) (Homo sapiens, UniProt P42345). Kind of data set: SelectScreen kinase profiling: mTOR. Type of data set: biochemical. The protocol: as §1
The next data set deals with GRK5 (Homo sapiens, UniProt P34947). The experiment in a line: SelectScreen kinase profiling: GRK5. The class given is biochemical. To be noted: 1 µM compound; [ATP] 5 µM. How it is done: as §1
Sequence of GRK5 (P34947 whole entry): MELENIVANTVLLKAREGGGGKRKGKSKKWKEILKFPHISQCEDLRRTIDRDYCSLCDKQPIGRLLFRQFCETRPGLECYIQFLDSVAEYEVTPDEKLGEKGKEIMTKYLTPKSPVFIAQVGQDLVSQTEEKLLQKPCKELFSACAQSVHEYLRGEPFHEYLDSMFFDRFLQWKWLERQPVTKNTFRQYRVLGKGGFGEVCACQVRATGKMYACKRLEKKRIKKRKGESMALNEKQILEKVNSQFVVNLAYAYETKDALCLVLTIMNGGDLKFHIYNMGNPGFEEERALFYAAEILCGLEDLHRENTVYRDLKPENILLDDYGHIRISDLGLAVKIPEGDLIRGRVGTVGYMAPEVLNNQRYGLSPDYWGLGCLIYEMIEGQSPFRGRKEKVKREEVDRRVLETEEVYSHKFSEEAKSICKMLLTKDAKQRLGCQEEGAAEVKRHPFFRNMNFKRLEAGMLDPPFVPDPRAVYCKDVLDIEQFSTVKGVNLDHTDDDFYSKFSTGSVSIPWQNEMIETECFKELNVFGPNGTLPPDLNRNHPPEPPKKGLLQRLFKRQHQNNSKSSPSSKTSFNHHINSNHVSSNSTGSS
The target of a further data set is IKBKB (IKKβ) (Homo sapiens, UniProt O14920). The experiment in a line: SelectScreen kinase profiling: IKBKB. Type of data set: biochemical. To be noted: 1 µM compound; [ATP] 5 µM. How it is done: as §1
Another data set addresses ITK (Homo sapiens, UniProt Q08881). Kind of data set: SelectScreen kinase profiling: ITK. Type of data set: biochemical. The settings on record: [ATP] 5 µM. The protocol:
as §1

For the next data set, the target named is LCK (Homo sapiens, UniProt P06239). Kind of data set: SelectScreen kinase profiling: LCK. Type of data set: biochemical. To be noted: [ATP] 50 µM. The protocol:
as §1

The target of the next data set is MAPKAPK2 (Homo sapiens, UniProt P49137). The experiment in a line: SelectScreen kinase profiling: MAPKAPK2. The class given is biochemical. To be noted: 1 µM compound; [ATP] 5 µM. The protocol: as §1
Sequence of MAPKAPK2 (P49137 whole entry): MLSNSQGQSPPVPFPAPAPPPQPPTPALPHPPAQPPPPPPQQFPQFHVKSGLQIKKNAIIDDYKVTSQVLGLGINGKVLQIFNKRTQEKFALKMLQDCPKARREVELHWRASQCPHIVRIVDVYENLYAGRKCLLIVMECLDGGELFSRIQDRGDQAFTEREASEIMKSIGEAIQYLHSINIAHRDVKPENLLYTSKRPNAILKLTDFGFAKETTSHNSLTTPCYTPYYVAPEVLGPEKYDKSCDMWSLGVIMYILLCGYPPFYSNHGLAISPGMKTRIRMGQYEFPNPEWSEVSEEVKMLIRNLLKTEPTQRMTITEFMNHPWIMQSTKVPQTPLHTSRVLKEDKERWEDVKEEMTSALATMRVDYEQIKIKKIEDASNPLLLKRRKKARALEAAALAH
A further data set deals with MARK1 (MARK) (Homo sapiens, UniProt Q9P0L2). Kind of data set: SelectScreen kinase profiling: MARK1. The class given is biochemical. The settings on record: [ATP] 5 µM. The protocol:
as §1

A further data set has as its target PRKCE (PKCε) (Homo sapiens, UniProt Q02156). The experiment in a line: SelectScreen kinase profiling: PRKCE. The class given is biochemical. The settings on record: [ATP] 25 µM. The protocol:
as §1

A further data set addresses SRC (Homo sapiens, UniProt P12931). The experiment in a line: SelectScreen kinase profiling: SRC. To be noted: [ATP] 50 µM. Type of data set: biochemical. How it is done:
as §1

In data set [1] the target is PIK3CA/PIK3R1(p110α/p85α) (Homo sapiens, UniProt P42336). The experiment in a line: SelectScreen kinase profiling: PIK3CA/PIK3R1. The class given is biochemical. The settings on record: [ATP] 25 µM. The protocol: as §1
Sequence of PIK3CA/PIK3R1(p110α/p85α) (P42336 whole entry): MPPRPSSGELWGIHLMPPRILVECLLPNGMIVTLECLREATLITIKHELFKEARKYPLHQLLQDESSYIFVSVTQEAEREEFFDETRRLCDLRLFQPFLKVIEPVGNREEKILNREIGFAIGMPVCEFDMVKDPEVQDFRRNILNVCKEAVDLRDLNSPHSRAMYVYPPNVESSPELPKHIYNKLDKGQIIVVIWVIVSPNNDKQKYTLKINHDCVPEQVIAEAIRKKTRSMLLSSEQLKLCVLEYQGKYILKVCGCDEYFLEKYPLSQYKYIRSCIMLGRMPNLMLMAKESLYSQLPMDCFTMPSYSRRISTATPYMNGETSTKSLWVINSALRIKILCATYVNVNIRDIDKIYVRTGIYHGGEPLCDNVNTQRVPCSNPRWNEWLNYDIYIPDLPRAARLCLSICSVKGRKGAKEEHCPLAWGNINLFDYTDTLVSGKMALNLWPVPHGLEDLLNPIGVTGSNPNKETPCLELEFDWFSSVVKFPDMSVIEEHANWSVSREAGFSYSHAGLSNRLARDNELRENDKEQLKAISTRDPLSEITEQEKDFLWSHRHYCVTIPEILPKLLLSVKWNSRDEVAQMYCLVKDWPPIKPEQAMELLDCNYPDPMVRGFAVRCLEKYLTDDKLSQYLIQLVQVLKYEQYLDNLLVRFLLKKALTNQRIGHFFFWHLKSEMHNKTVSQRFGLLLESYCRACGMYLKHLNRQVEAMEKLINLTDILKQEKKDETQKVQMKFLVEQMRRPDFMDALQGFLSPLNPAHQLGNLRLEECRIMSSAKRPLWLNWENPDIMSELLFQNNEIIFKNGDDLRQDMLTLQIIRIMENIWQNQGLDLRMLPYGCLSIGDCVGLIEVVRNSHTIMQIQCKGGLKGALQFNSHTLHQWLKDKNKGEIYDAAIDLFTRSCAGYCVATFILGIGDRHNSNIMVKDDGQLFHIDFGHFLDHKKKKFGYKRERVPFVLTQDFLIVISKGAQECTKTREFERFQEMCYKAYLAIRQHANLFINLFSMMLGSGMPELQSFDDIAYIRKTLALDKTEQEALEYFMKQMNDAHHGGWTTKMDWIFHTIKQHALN
Sequence of PIK3CA/PIK3R1(p110α/p85α) (P27986 whole entry partner): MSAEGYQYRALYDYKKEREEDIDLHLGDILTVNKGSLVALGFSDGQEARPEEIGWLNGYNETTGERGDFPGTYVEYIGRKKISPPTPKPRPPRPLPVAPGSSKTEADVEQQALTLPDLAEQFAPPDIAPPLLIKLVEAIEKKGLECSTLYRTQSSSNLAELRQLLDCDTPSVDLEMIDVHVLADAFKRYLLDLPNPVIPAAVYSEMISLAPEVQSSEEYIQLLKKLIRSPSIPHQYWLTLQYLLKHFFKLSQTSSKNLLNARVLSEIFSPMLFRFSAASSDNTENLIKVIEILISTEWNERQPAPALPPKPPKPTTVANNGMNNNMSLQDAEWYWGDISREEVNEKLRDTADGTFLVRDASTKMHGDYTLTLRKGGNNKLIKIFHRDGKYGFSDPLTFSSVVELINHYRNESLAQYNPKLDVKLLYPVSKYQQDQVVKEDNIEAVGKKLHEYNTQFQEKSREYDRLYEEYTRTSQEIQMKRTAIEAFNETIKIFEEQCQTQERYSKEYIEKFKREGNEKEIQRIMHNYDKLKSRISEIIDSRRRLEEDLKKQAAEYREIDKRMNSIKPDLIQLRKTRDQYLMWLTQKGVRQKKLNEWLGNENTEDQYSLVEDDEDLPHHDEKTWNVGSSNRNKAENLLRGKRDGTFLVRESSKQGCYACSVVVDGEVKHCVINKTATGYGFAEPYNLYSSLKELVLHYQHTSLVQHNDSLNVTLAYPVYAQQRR
A further data set deals with Akt1 (PKBα) (Homo sapiens, UniProt P31749). Kind of data set: SelectScreen kinase profiling: Akt1. The class given is biochemical. The settings on record: 10-point titration; [ATP] 75 μM. The protocol:
Effect of the indicated compounds on the activity of various kinases was assessed by SelectScreen Kinase Profiling Service (Invitrogen-Life Technologies, Paisley, UK). […] In the case of […] a screen using 10 μM of the compound was also carried out, as indicated in the corresponding table.

The subject of data set [2] is Akt phosphorylation at Ser473 and Thr308 in SKOV-3. The experiment in a line: Akt activation by western blot in SKOV-3. The class given is cell-based, human. The settings on record: SKOV-3, 8 h or 24 h, serum free medium. The protocol:
(§2) Akt activation was assessed by monitoring phosphorylation at its residues Ser473 and Thr308. Membranes were then stripped and re-probed with the indicated antibodies.

For data set [3], the system named is Akt phosphorylation in PC3. The experiment in a line: Akt activation by western blot in PC3. Type of data set: cell-based, human. The settings on record: PC3, 24 h, medium containing 0.5% FBS. The protocol: as §2
For data set [4], the system named is Akt phosphorylation in ASPC1. Kind of data set: Akt activation by western blot in ASPC1. Type of data set: cell-based, human. To be noted: ASPC1, results not shown.
Data set [5] deals with SKBR3. The experiment in a line: Cell survival by cell counting, SKBR3. Type of data set: cell-based, human. To be noted: SKBR3, 72 h. The protocol: (§3) Cells seeded in a 24-well plate were treated with the indicated compounds in serum free DMEM or DMEM containing 0.5% FBS (PC3). After 72 h, the number of surviving cells was assessed by manual cell counting or by using the cell counter CDA-500 (Sysmex, Milton Keynes, UK). Alternatively, after 48 h, the number of apoptotic cells was assessed by acridine orange/ethidium bromide assay as described ([Piccolo et al, 2004]; [Maffucci et al, 2005]). SRB test was carried out in SKOV-3 and PC3 seeded in 96-well plate (3800 cells per well or 5800 cells per well, respectively) after 72 h of treatment as described ([Cappella et al, 2001]).
(§4) The number of surviving cells was assessed by cell counting. Data are mean±s.e. of n=4 (A) and n=2 (B) independent experiments. ^**=P<0.05. […] The number of apoptotic cells was assessed by acridine orange/ethidium bromide assay. Data are mean±s.e. of three independent experiments. ^**=P<0.05.

The subject of another data set is ASPC1. The experiment in a line: Cell survival by cell counting, ASPC1. Type of data set: cell-based, human. The settings on record: ASPC1, 72 h. How it is done: as §3
(§5) The number of surviving cells was assessed by cell counting. Data are mean±s.e. of n=3 (A), n=6 (B), n=3 (C) and n=4 (D) independent experiments carried out in duplicate. ^*=P<0.01; ^**=P<0.05. […] After 72 h the number of surviving cells was assessed by SRB assay. Data are mean±s.e. of n=2 independent experiments.
(§6) Data are mean±s.e. of n=4 independent experiments carried out in duplicate. […] Data are mean±s.e. of n=5 independent experiments carried out in duplicate. […] In all cases (A–D), cells were treated for 72 h and the number of surviving cells was assessed by cell counting. […] In all cases (E, F), cells were treated for 72 h and the number of surviving cells was assessed by SRB assay and data are mean±s.e. of two experiments carried out in quadruplicate.

For another data set, the system named is MDA-MB-468. The experiment in a line: Cell survival by cell counting, MDA-MB-468. Type of data set: cell-based, human. To be noted: MDA-MB-468, 72 h. How it is done:
as §3, §5, §6

Data set [6] deals with PC3. The experiment in a line: Cell survival by cell counting, PC3. To be noted: PC3, 72 h. Type of data set: cell-based, human. How it is done:
as §3, §5, §6

The test system of the next data set is MCF7. The experiment in a line: Cell survival by cell counting, MCF7. The class given is cell-based, human. To be noted: MCF7, 72 h, 20 nM 4-OH Tamoxifen, 50 μM 2-O-Bn-InsP5 alone or in combination. The protocol:
as §3
(§7) Data are mean±s.e. of n=4 independent experiments carried out in duplicate. […] Data are mean±s.e. of n=5 independent experiments carried out in duplicate. […] Data are mean±s.e. of n=6 independent experiments carried out in duplicate. […] Data are mean±s.e. of n=2 independent experiments carried out in duplicate. In all cases (A–D), cells were treated for 72 h and the number of surviving cells was assessed by cell counting. […] In all cases (E, F), cells were treated for 72 h and the number of surviving cells was assessed by SRB assay and data are mean±s.e. of two experiments carried out in quadruplicate.

Data set [7] has as its system SKBR3. Kind of data set: Acridine orange/ethidium bromide apoptosis assay, SKBR3. Type of data set: cell-based, human. The protocol:
as §3, §4

Data set [8] has as its system PC3. The experiment in a line: SRB assay, PC3. Type of data set: cell-based, human. To be noted: PC3, 72 h. How it is done: as §3, §5, §7
Another data set in a line: Water solubility. Type of data set: physicochemical.

Molecules are shown by their SMILES.

The source of these data is publication PMC2813745, “A novel inhibitor of the PI3K/Akt pathway based on the structure of inositol 1,3,4,5,6-pentakisphosphate” (British Journal of Cancer, 2010).

Sequence of PRKCE (PKCε) (Q02156 whole entry): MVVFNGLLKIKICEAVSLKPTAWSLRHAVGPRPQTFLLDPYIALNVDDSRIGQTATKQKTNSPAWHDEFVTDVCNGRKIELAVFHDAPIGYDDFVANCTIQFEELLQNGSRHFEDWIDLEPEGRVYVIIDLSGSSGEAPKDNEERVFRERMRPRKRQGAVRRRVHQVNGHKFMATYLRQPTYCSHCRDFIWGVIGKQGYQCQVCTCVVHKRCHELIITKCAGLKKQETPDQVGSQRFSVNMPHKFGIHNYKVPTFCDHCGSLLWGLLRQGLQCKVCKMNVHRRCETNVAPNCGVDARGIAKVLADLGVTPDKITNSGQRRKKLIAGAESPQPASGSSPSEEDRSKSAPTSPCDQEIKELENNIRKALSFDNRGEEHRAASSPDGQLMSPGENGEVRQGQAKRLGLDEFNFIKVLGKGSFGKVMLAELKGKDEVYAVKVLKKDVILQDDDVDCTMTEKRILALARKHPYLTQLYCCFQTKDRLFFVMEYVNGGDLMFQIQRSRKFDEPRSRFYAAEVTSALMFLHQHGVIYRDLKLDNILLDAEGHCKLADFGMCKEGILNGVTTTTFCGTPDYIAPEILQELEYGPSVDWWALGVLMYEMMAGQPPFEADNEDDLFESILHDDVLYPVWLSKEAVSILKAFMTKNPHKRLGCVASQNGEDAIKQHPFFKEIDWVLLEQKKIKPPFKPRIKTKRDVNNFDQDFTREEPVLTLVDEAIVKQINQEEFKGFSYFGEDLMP
Sequence of CAMK2A (CaMKII alpha) (Q9UQM7 whole entry): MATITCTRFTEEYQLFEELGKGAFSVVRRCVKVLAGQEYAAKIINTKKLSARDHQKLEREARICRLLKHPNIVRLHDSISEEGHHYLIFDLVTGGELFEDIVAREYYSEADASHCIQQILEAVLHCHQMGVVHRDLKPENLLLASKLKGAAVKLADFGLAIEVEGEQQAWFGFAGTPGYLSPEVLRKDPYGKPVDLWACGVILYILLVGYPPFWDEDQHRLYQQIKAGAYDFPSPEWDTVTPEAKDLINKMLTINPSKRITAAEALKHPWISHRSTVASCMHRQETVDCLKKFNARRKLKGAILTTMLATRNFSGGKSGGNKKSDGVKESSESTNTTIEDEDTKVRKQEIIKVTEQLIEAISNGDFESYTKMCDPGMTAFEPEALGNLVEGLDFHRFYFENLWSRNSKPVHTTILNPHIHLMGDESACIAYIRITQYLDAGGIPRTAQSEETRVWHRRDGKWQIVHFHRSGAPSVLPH
Sequence of Akt1 (PKBα) (P31749 whole entry): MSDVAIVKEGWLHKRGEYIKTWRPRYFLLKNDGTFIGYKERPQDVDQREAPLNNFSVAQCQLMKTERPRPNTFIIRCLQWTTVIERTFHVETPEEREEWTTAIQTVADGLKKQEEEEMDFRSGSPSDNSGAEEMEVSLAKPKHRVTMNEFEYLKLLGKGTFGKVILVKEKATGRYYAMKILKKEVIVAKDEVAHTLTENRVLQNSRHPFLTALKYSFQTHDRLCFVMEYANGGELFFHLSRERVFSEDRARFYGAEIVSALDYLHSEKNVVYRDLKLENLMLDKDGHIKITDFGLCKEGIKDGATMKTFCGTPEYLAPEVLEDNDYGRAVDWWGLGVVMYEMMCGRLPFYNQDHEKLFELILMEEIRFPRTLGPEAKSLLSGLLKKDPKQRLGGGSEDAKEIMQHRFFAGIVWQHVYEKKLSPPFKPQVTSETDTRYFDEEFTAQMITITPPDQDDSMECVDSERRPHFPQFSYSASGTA
Sequence of CHEK2 (CHK2) (O96017 whole entry): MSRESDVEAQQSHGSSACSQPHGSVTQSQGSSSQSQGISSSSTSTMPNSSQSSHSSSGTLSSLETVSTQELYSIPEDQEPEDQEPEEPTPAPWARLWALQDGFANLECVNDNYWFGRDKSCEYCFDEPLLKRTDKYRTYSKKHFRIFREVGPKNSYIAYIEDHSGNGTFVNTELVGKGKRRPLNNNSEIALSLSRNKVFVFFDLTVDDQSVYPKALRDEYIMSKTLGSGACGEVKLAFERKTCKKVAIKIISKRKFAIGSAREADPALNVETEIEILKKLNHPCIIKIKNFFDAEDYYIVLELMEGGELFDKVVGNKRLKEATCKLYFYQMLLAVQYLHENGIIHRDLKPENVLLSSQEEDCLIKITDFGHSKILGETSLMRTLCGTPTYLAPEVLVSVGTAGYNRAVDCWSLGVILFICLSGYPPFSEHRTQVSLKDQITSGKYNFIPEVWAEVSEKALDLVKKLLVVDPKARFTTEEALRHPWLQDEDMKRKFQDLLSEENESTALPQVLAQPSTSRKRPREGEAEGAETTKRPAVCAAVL

As for `O=P(O)(O)OC1C(OCc2ccccc2)C(OP(=O)(O)O)C(OP(=O)(O)O)C(OP(=O)(O)O)C1OP(=O)(O)O` (stereo not drawn) [2-O-Bn-InsP5, 2-O-benzyl-myo-inositol 1,3,4,5,6-pentakisphosphate], the inhibition at 1 µM is 34% at AURKA (Aurora A); -2% on CAMK2A (CaMKII alpha) (1 µM compound); 12% against CHEK2 (CHK2) (1 µM compound); 48% on FRAP1 (mTOR) (1 µM compound, [ATP] 10 µM); 34% at GRK5; 13% at IKBKB (IKKβ). The inhibition at 1 µM at ITK (1 µM compound) is -11%; on LCK (1 µM compound) it was 7%; on MAPKAPK2, 20%; against MARK1 (MARK) (1 µM compound), 0%; against PRKCE (PKCε) (1 µM compound) it was 14%; against SRC (1 µM compound), 4%. In addition, in data set [1] (1 µM compound), the inhibition at 1 µM turned out to be 2%. Further, the IC50 was 1300 nM against FRAP1 (mTOR) (10-point titration, [ATP] 10 μM) and over 100 µM against Akt1 (PKBα). In addition, in data set [2], the “Akt phosphorylation at residue Ser473” value was “inhibited Akt phosphorylation at its residue Ser473 more efficiently than InsP5 in SKOV-3, being already active after 8 h of treatment and at a concentration of 20 μM”. In addition, the “Akt phosphorylation at residue Thr308” value in [2] is given as “Inhibition of Akt phosphorylation at residue Thr308 was also detected”. The Akt phosphorylation result in [3] and in data set [4] was “able to block Akt phosphorylation” in each case. In addition, the “number of surviving cells” value was “strongly reduced the number of surviving” with SKBR3 [5]; “more active than InsP5 at almost all concentrations tested” in the data set on ASPC1; “stronger activity of 2-O-Bn-InsP5 compared with InsP5” in the data set on MDA-MB-468; “stronger activity of 2-O-Bn-InsP5 compared with InsP5” in the data set with PC3 [6]; “little effect” with MCF7; “Higher activity” with PC3 [8]. Moreover, the “percentage of apoptotic cells” value in the data set on SKBR3 [7] is “percentage of apoptotic cells was higher in 2-O-Bn-InsP5-treated compared with InsP5-treated”. Moreover, in “Water solubility”, the water solubility entry is listed as “water soluble compound”.

`O=P(O)(O)OC1C(O)C(OP(=O)(O)O)C(OP(=O)(O)O)C(OP(=O)(O)O)C1OP(=O)(O)O` (stereo not drawn) [InsP5, inositol 1,3,4,5,6-pentakisphosphate]: the inhibition at 1 µM was determined as 1% against AURKA (Aurora A), 37% on GRK5, 1% against IKBKB (IKKβ) and 4% on MAPKAPK2. Further, the inhibition at 10 µM at CAMK2A (CaMKII alpha) (10 µM compound) was 17%; against CHEK2 (CHK2) (10 µM compound) it was 15%; against FRAP1 (mTOR) (10 µM compound, [ATP] 10 µM), 16%; against ITK (10 µM compound) it was 6%; at LCK (10 µM compound), -26%; against MARK1 (MARK) (10 µM compound), 7%. For the same molecule, the inhibition at 10 µM worked out at 0% against PRKCE (PKCε) (10 µM compound), 10% at SRC (10 µM compound) and 5% in [1] (10 µM compound). In addition, on FRAP1 (mTOR) (10 µM compound, [ATP] 10 µM), the “% Inhibition Mean” value was “did not inhibit mTOR”. The IC50 at Akt1 (PKBα) was over 100 µM. For the same molecule, in the data set on PC3 [8], the “concentrations able to mimic the effect of 2-O-Bn-InsP5” value is 200 to 300 µM. In addition, the “number of surviving cells” value in the data set with PC3 [8] is recorded as “no effect in PC3 at concentrations up to 50 μM”. Further, the water solubility result in the data set “Water solubility” is reported as “water soluble compound”.
